# Active and inactive are the calls of the source. How the calls were made is not given here.
# Test system: CCRIS mutagenicity, Ames/micronucleus/aberration tests
# Experiment: CCRIS mutagenicity studies
# [1] = Test System: AMES SALMONELLA TYPHIMURIUM, Strain/Indicator: TA98, Metabolic Activation: HAMSTER, LIVER, S-9, AROCLOR 1254 (10%), Method: PREINCUBATION
# [2] = Test System: AMES SALMONELLA TYPHIMURIUM, Strain/Indicator: TA98, Metabolic Activation: NONE, Method: PREINCUBATION
# [3] = Test System: AMES SALMONELLA TYPHIMURIUM, Strain/Indicator: TA98, Metabolic Activation: RAT, LIVER, S-9, AROCLOR 1254 (10%), Method: PREINCUBATION
# [4] = Test System: AMES SALMONELLA TYPHIMURIUM, Strain/Indicator: TA100, Metabolic Activation: HAMSTER, LIVER, S-9, AROCLOR 1254 (10%), Method: PREINCUBATION
# [5] = Test System: AMES SALMONELLA TYPHIMURIUM, Strain/Indicator: TA100, Metabolic Activation: NONE, Method: PREINCUBATION
# [6] = Test System: AMES SALMONELLA TYPHIMURIUM, Strain/Indicator: TA100, Metabolic Activation: RAT, LIVER, S-9, AROCLOR 1254 (10%), Method: PREINCUBATION
# [7] = Test System: AMES SALMONELLA TYPHIMURIUM, Strain/Indicator: TA1535, Metabolic Activation: HAMSTER, LIVER, S-9, AROCLOR 1254 (10%), Method: PREINCUBATION
# [8] = Test System: AMES SALMONELLA TYPHIMURIUM, Strain/Indicator: TA1535, Metabolic Activation: NONE, Method: PREINCUBATION
# [9] = Test System: AMES SALMONELLA TYPHIMURIUM, Strain/Indicator: TA1535, Metabolic Activation: RAT, LIVER, S-9, AROCLOR 1254 (10%), Method: PREINCUBATION
structure (smiles),measurement,setting,value
NC(CO)Cc1cnc[nH]1 (stereo unspecified),mutagenic call,"Test System: MOUSE LYMPHOMA, Strain/Indicator: L5178Y (TK+/TK-), Metabolic Activation: NONE, Method: SUSPENSION/PLATE",inactive; negative. reevaluation of results: negative
same,mutagenic call,"Test System: MOUSE LYMPHOMA, Strain/Indicator: L5178Y (TK+/TK-), Metabolic Activation: RAT, LIVER, S-9, AROCLOR 1254, Method: SUSPENSION/PLATE",inactive; negative. reevaluation of results: negative
Nc1c(Cl)cc(Cl)cc1Cl,mutagenic call,"End Point: IN VITRO CHROMOSOMAL ABERRATIONS, Test System: CHL CELLS, Metabolic Activation: NONE",inactive; negative
same,mutagenic call,"End Point: IN VITRO CHROMOSOMAL ABERRATIONS, Test System: CHL CELLS, Metabolic Activation: RAT, LIVER, S-9, SODIUM PHENOBARBITAL AND 5,6-BENZOFLAVONE",inactive; negative
same,mutagenic call,"Test System: AMES SALMONELLA TYPHIMURIUM, Strain/Indicator: TA97, Metabolic Activation: HAMSTER, LIVER, S-9, AROCLOR 1254 (10%), Method: PREINCUBATION",inactive; negative
same,mutagenic call,"Test System: AMES SALMONELLA TYPHIMURIUM, Strain/Indicator: TA97, Metabolic Activation: HAMSTER, LIVER, S-9, AROCLOR 1254 (30%), Method: PREINCUBATION",inactive; negative
same,mutagenic call,"Test System: AMES SALMONELLA TYPHIMURIUM, Strain/Indicator: TA97, Metabolic Activation: NONE, Method: PREINCUBATION",inactive; negative
same,mutagenic call,"Test System: AMES SALMONELLA TYPHIMURIUM, Strain/Indicator: TA97, Metabolic Activation: RAT, LIVER, S-9, AROCLOR 1254 (10%), Method: PREINCUBATION",inactive; negative
same,mutagenic call,"Test System: AMES SALMONELLA TYPHIMURIUM, Strain/Indicator: TA97, Metabolic Activation: RAT, LIVER, S-9, AROCLOR 1254 (30%), Method: PREINCUBATION",inactive; negative
same,mutagenic call,[1],inactive; negative
same,mutagenic call,"Test System: AMES SALMONELLA TYPHIMURIUM, Strain/Indicator: TA98, Metabolic Activation: HAMSTER, LIVER, S-9, AROCLOR 1254 (30%), Method: PREINCUBATION",inactive; negative
same,mutagenic call,[2],inactive; negative
same,mutagenic call,[3],inactive; negative
same,mutagenic call,"Test System: AMES SALMONELLA TYPHIMURIUM, Strain/Indicator: TA98, Metabolic Activation: RAT, LIVER, S-9, AROCLOR 1254 (30%), Method: PREINCUBATION",inactive; negative
same,mutagenic call,"Test System: AMES SALMONELLA TYPHIMURIUM, Strain/Indicator: TA100, Metabolic Activation: HAMSTER, LIVER, S-9, AROCLOR 1254 (5%), Method: PREINCUBATION",inactive; negative
same,mutagenic call,[4],inactive; negative
same,mutagenic call,"Test System: AMES SALMONELLA TYPHIMURIUM, Strain/Indicator: TA100, Metabolic Activation: HAMSTER, LIVER, S-9, AROCLOR 1254 (30%), Method: PREINCUBATION",inactive; negative
same,mutagenic call,[5],inactive; negative
same,mutagenic call,"Test System: AMES SALMONELLA TYPHIMURIUM, Strain/Indicator: TA100, Metabolic Activation: RAT, LIVER, S-9, AROCLOR 1254 (5%), Method: PREINCUBATION",inactive; negative
same,mutagenic call,[6],inactive; negative
same,mutagenic call,"Test System: AMES SALMONELLA TYPHIMURIUM, Strain/Indicator: TA100, Metabolic Activation: RAT, LIVER, S-9, AROCLOR 1254 (30%), Method: PREINCUBATION",inactive; negative
same,mutagenic call,[7],inactive; negative
same,mutagenic call,"Test System: AMES SALMONELLA TYPHIMURIUM, Strain/Indicator: TA1535, Metabolic Activation: HAMSTER, LIVER, S-9, AROCLOR 1254 (30%), Method: PREINCUBATION",inactive; negative
same,mutagenic call,[8],inactive; negative
same,mutagenic call,[9],inactive; negative
same,mutagenic call,"Test System: AMES SALMONELLA TYPHIMURIUM, Strain/Indicator: TA1535, Metabolic Activation: RAT, LIVER, S-9, AROCLOR 1254 (30%), Method: PREINCUBATION",inactive; negative
same,mutagenic call,"Test System: UDS RODENT HEPATOCYTES, Strain/Indicator: THY INCORP (NON-S-PHASE), Metabolic Activation: NONE, Method: AUTORADIOGRAPHY",inactive; negative
N#[N+]c1ccc([O-])cc1,mutagenic call,[2],active; positive
same,mutagenic call,"Test System: AMES SALMONELLA TYPHIMURIUM, Strain/Indicator: TA98, Metabolic Activation: RAT, LIVER, S-9, POLYCHLORINATED BIPHENYLS, Method: PREINCUBATION",active; positive
same,mutagenic call,[5],active; positive
same,mutagenic call,"Test System: AMES SALMONELLA TYPHIMURIUM, Strain/Indicator: TA100, Metabolic Activation: RAT, LIVER, S-9, POLYCHLORINATED BIPHENYLS, Method: PREINCUBATION",active; positive
CC(=O)C[C@@H]1CCC(=O)CCC(=O)O[C@H](CC(C)=O)CCC(=O)CCC(=O)O1,mutagenic call,"Test System: CHINESE HAMSTER V-79, Strain/Indicator: V-79 (HPRT)/6-THIOGUANINE, Metabolic Activation: NONE",inactive; negative
CSCCCCC(=NOS(=O)(=O)O)S[C@@H]1O[C@H](CO)[C@@H](O)[C@H](O)[C@H]1O,mutagenic call,"End Point: IN VITRO MICRONUCLEUS, Test System: HUMAN T-LYMPHOCYTES, Metabolic Activation: NONE",inactive; negative
O=[N+]([O-])c1ccc2c3c(c(O)ccc13)-c1ccccc1-2,mutagenic call,"Test System: AMES SALMONELLA TYPHIMURIUM, Strain/Indicator: TA98(1,8-DNP6), Metabolic Activation: NONE, Method: STANDARD PLATE",inactive; negative
same,mutagenic call,"Test System: AMES SALMONELLA TYPHIMURIUM, Strain/Indicator: TA98(NR), Metabolic Activation: NONE, Method: STANDARD PLATE",inactive; negative
same,mutagenic call,"Test System: AMES SALMONELLA TYPHIMURIUM, Strain/Indicator: TA98, Metabolic Activation: NONE, Method: STANDARD PLATE",active; positive
same,mutagenic call,"Test System: AMES SALMONELLA TYPHIMURIUM, Strain/Indicator: TA100(NR), Metabolic Activation: NONE, Method: STANDARD PLATE",inactive; negative
same,mutagenic call,"Test System: AMES SALMONELLA TYPHIMURIUM, Strain/Indicator: TA100(TN5-1,8-DNP1012), Metabolic Activation: NONE, Method: STANDARD PLATE",inactive; negative
same,mutagenic call,"Test System: AMES SALMONELLA TYPHIMURIUM, Strain/Indicator: TA100, Metabolic Activation: NONE, Method: STANDARD PLATE",inactive; negative
CC(=O)[O][Hg][c]1ccccc1,mutagenic call,[1],inactive; negative
same,mutagenic call,[2],inactive; negative
same,mutagenic call,[3],inactive; negative
same,mutagenic call,[4],inactive; negative
same,mutagenic call,[5],inactive; negative
same,mutagenic call,[6],inactive; negative
same,mutagenic call,[7],inactive; negative
same,mutagenic call,[8],inactive; negative
same,mutagenic call,[9],inactive; negative
same,mutagenic call,"Test System: AMES SALMONELLA TYPHIMURIUM, Strain/Indicator: TA1537, Metabolic Activation: HAMSTER, LIVER, S-9, AROCLOR 1254 (10%), Method: PREINCUBATION",inactive; negative
same,mutagenic call,"Test System: AMES SALMONELLA TYPHIMURIUM, Strain/Indicator: TA1537, Metabolic Activation: NONE, Method: PREINCUBATION",inactive; negative
same,mutagenic call,"Test System: AMES SALMONELLA TYPHIMURIUM, Strain/Indicator: TA1537, Metabolic Activation: RAT, LIVER, S-9, AROCLOR 1254 (10%), Method: PREINCUBATION",inactive; negative

# — PubChem BioAssay AID1259407 (Chemical Carcinogenesis Research Information System (CCRIS), 2018)
